# Laboratory results published in patent US8309567B2, “Spiroindoline derivatives having insecticidal properties” (priority 2003, dated 2012).
# System: Spodoptera littoralis (Egyptian cotton leafworm)
# Experiment: Spodoptera littoralis cotton leaf disc spray test
# Assay type: in vivo
# Conditions: 200 ppm sprayed on cotton leaf discs, L1 larvae, 3 days after treatment; mortality, repellent effect, feeding behaviour, growth regulation
# Method: This Example illustrates the pesticidal/insecticidal properties of compounds of formula (I). Test against were performed as follows:
# Spodoptera littoralis (Egyptian cotton leafworm)
# Cotton leaf discs were placed on agar in a 24-well microtiter plate and sprayed with test solutions at an application rate of 200 ppm. After drying, the leaf discs were infested with 5 L1 larvae. The samples were checked for mortality, repellent effect, feeding behaviour, and growth regulation 3 days after treatment (DAT). The following compounds gave at least 80% control of Spodoptera littoralis: CIII-49.
smiles,measurement,value
"O=C(c1ccnc(Cl)c1)N1C[C@]2(CCN(C/C=C/c3ccc(Cl)cc3)C[C@H]2O)c2cc(Cl)ccc21 [CIII-49, 5-chloro-1-(2-chloropyridin-4-yl)carbonyl-1′-[trans-3-(4-chlorophenyl)allyl]-3′-hydroxy-spiro[indoline-3,4′-piperidine]]",control of Spodoptera littoralis,at least 80%
